Converted amounts (≈) assume the structure as drawn. The source made the active and inactive calls. The calls are words filed in the database; no cut-off is given here.
Assays:
Staphylococcus aureus [1] = test: Antibacterial activity against methicillin-resistant Staphylococcus aureus after 24 hrs by serial dilution method; type: functional
Staphylococcus aureus [2] = test: Antibacterial activity against Staphylococcus aureus NCIMB 12702 after 24 hrs by serial dilution method; type: functional; settings: for MIC50 / MIC90 / MIC80: Staphylococcus aureus, NCIMB 12702, 24 h
[3] = Toxicity in sixth development stage of Galleria mellonella larvae assessed as survival rate at 100 ug/ml after 48 hrs; type: organism-based; settings: in vivo
[4] = Toxicity in sixth development stage of Galleria mellonella larvae assessed as survival rate at 10 ug/ml after 24 hrs; type: organism-based; settings: in vivo
Pseudomonas aeruginosa = test: Antibacterial activity against Pseudomonas aeruginosa ATCC 10145 after 24 hrs by serial dilution method; type: functional, organism-based
Escherichia coli = test: Antibacterial activity against Escherichia coli NCIMB 9485 after 24 hrs by serial dilution method; type: functional; settings: for MIC50 / MIC90 / MIC80: NCIMB 9485, 24 h
[5] = Toxicity in sixth development stage of Galleria mellonella larvae assessed as survival rate at 10 ug/ml after 48 hrs; type: organism-based; settings: in vivo
[6] = Toxicity in sixth development stage of Galleria mellonella larvae assessed as survival rate at 100 ug/ml after 72 hrs; type: organism-based; settings: in vivo
[7] = Toxicity in sixth development stage of Galleria mellonella larvae assessed as survival rate at 1000 ug/ml after 72 hrs; type: organism-based; settings: in vivo
[8] = Toxicity in sixth development stage of Galleria mellonella larvae assessed as survival rate at 50 ug/ml after 48 hrs; type: organism-based; settings: in vivo
[9] = Toxicity in sixth development stage of Galleria mellonella larvae assessed as survival rate at 1 ug/ml after 48 hrs; type: organism-based; settings: in vivo
[10] = Toxicity in sixth development stage of Galleria mellonella larvae assessed as survival rate at 50 ug/ml after 24 hrs; type: organism-based; settings: in vivo
[11] = Toxicity in sixth development stage of Galleria mellonella larvae assessed as survival rate at 10 ug/ml after 72 hrs; type: organism-based; settings: in vivo
[12] = Toxicity in sixth development stage of Galleria mellonella larvae assessed as survival rate at 1000 ug/ml after 48 hrs; type: organism-based; settings: in vivo
[13] = Toxicity in sixth development stage of Galleria mellonella larvae assessed as survival rate at 50 ug/ml after 72 hrs; type: organism-based; settings: in vivo
[14] = Toxicity in sixth development stage of Galleria mellonella larvae assessed as survival rate at 1000 ug/ml after 24 hrs; type: organism-based; settings: in vivo
Galleria mellonella = test: Toxicity in sixth development stage of Galleria mellonella larvae assessed as larvae pupation at 1 to 1000 ug/ml after 7 days relative to control; type: organism-based; settings: in vivo, 168 h
[15] = Toxicity in sixth development stage of Galleria mellonella larvae assessed as survival rate at 1 ug/ml after 72 hrs; type: organism-based; settings: in vivo
[16] = Toxicity in sixth development stage of Galleria mellonella larvae assessed as survival rate at 100 ug/ml after 24 hrs; type: organism-based; settings: in vivo
[17] = Toxicity in sixth development stage of Galleria mellonella larvae assessed as survival rate at 1 ug/ml after 24 hrs; type: organism-based; settings: in vivo

C=C[C@H]1CN2CC[C@H]1C[C@H]2[C@@H](NC(=S)Nc1cc(C(F)(F)F)cc(C(F)(F)F)c1)c1ccnc2ccccc12 showed an MIC50 (Staphylococcus aureus [1]) of 10.8 µM (≈ 6.1 µg/mL), an MIC90 (Staphylococcus aureus [1]) of 18.1 µM (≈ 10.2 µg/mL) and an MIC50 (Staphylococcus aureus [2]) of 8.32 µM (≈ 4.7 µg/mL). The MIC90 (Staphylococcus aureus [2]) was 16.6 µM (≈ 9.38 µg/mL), the survival at 48 h [3] was 100% and the survival at 24 h [4] was 100%. For the same compound, the MIC (Pseudomonas aeruginosa) was “inactive”, the MIC50 (Escherichia coli) was 5.54 µM (≈ 3.13 µg/mL) and the MIC90 (Escherichia coli) was 8.32 µM (≈ 4.7 µg/mL). The survival at 48 h [5] was 100%, the survival at 72 h [6] was 100% and the survival at 72 h [7] was 100%. It also gave a survival at 48 h [8] of 100%, a survival at 48 h [9] of 100% and a survival at 24 h [10] of 100%. The survival at 72 h [11] was 100%, the survival at 48 h [12] was 100% and the survival at 72 h [13] was 100%. For the same compound, the survival at 24 h [14] was 100%, the Activity (Galleria mellonella) was “Non-toxic” and the survival at 72 h [15] was 100%. It also gave a survival at 24 h [16] of 100% and a survival at 24 h [17] of 100%.

With COC(=O)[C@@H]1C[C@H](NC(=S)Nc2cc(C(F)(F)F)cc(C(F)(F)F)c2)CN1 the MIC90 (Staphylococcus aureus [2]) was greater than 200 µM, the MIC (Pseudomonas aeruginosa) was “inactive” and the MIC90 (Escherichia coli) was greater than 200 µM.

In the case of CCC1CN2CCC1CC2[C@@H](OC(=O)c1ccc(Cl)cc1)c1ccnc2ccc(OC)cc12 (stereo partly specified), the MIC90 (Staphylococcus aureus [2]) is reported as 79.4 µM (≈ 36.9 µg/mL), the MIC (Pseudomonas aeruginosa) is reported as “inactive” and the MIC90 (Escherichia coli) is reported as greater than 200 µM.

With FC(F)(F)c1cc(NC(=S)Nc2ccccc2)cc(C(F)(F)F)c1 the MIC50 (Staphylococcus aureus [2]) was greater than 275 µM, the MIC80 (Staphylococcus aureus [2]) was greater than 275 µM and the MIC90 (Staphylococcus aureus [2]) was greater than 275 µM. The survival at 48 h [3] was 100%, the survival at 24 h [4] was 100% and the MIC (Pseudomonas aeruginosa) was “inactive”. It also gave an MIC50 (Escherichia coli) of 51.5 µM (≈ 18.8 µg/mL), an MIC80 (Escherichia coli) of 103 µM (≈ 37.5 µg/mL) and an MIC90 (Escherichia coli) of 206 µM (≈ 75.1 µg/mL). It also gave a survival at 48 h [5] of 100%, a survival at 72 h [6] of 100% and a survival at 72 h [7] of 100%. The survival at 48 h [8] was 100%, the survival at 48 h [9] was 100% and the survival at 24 h [10] was 100%. The survival at 72 h [11] was 100%, the survival at 48 h [12] was 100% and the survival at 72 h [13] was 100%. For the same compound, the survival at 24 h [14] was 100%, the Activity (Galleria mellonella) was “Non-toxic” and the survival at 72 h [15] was 100%. The survival at 24 h [16] was 100% and the survival at 24 h [17] was 100%.

With CCC1CN2CCC1C[C@H]2[C@@H](Oc1ccc(O[C@@H](c2ccnc3ccc(OC)cc23)[C@@H]2CC3CCN2CC3CC)c2c1C(=O)c1ccccc1C2=O)c1ccnc2ccc(OC)cc12 (stereo partly specified) the MIC82 (Staphylococcus aureus [2]) was 124.9 µM (≈ 107 µg/mL), the MIC (Pseudomonas aeruginosa) was “inactive” and the MIC90 (Escherichia coli) was greater than 200 µM.

In the case of CCC1CN2CCC1C[C@@H]2[C@@H](Oc1nc(-c2ccccc2)nc(O[C@@H](c2ccnc3ccc(OC)cc23)[C@H]2CC3CCN2CC3CC)c1-c1ccccc1)c1ccnc2ccc(OC)cc12 (stereo partly specified), the MIC90 (Staphylococcus aureus [2]) is reported as greater than 200 µM, the MIC (Pseudomonas aeruginosa) is reported as “inactive” and the MIC90 (Escherichia coli) is reported as greater than 200 µM.

In the case of C=CC1CN2CCC1CC2[C@@H](Oc1cc(C)c2ccccc2n1)c1ccnc2ccc(OC)cc12 (stereo partly specified), the MIC90 (Staphylococcus aureus [2]) is reported as 115 µM (≈ 53.5 µg/mL), the MIC (Pseudomonas aeruginosa) is reported as “inactive” and the MIC90 (Escherichia coli) is reported as greater than 200 µM.

With CCNC(=S)Nc1cc(C(F)(F)F)cc(C(F)(F)F)c1 the MIC50 (Staphylococcus aureus [2]) was greater than 316 µM, the MIC90 (Staphylococcus aureus [2]) was greater than 316 µM and the MIC (Pseudomonas aeruginosa) was “inactive”. For the same compound, the MIC50 (Escherichia coli) was 158 µM (≈ 50 µg/mL) and the MIC90 (Escherichia coli) was greater than 316 µM.

CN(C)[C@@H]1CCCC[C@H]1NC(=S)Nc1cc(C(F)(F)F)cc(C(F)(F)F)c1 showed an MIC50 (Staphylococcus aureus [1]) of 21.5 µM (≈ 8.91 µg/mL), an MIC90 (Staphylococcus aureus [1]) of 32.2 µM (≈ 13.3 µg/mL) and an MIC80 (Staphylococcus aureus [2]) of 90.8 µM (≈ 37.5 µg/mL). The MIC (Pseudomonas aeruginosa) was “inactive”, the MIC50 (Escherichia coli) was 23.8 µM (≈ 9.84 µg/mL) and the MIC80 (Escherichia coli) was 90.8 µM (≈ 37.5 µg/mL). The MIC90 (Escherichia coli) was 120 µM (≈ 49.6 µg/mL).

CCN(CC)CCNC(=S)Nc1cc(C(F)(F)F)cc(C(F)(F)F)c1 showed an MIC50 (Staphylococcus aureus [1]) of 13.5 µM (≈ 5.22 µg/mL), an MIC90 (Staphylococcus aureus [1]) of 23.5 µM (≈ 9.11 µg/mL) and an MIC50 (Staphylococcus aureus [2]) of 96.9 µM (≈ 37.5 µg/mL). It also gave an MIC80 (Staphylococcus aureus [2]) of 129 µM (≈ 50 µg/mL), an MIC90 (Staphylococcus aureus [2]) of 194 µM (≈ 75.1 µg/mL) and a survival at 48 h [3] of 100%. The survival at 24 h [4] was 100%, the MIC (Pseudomonas aeruginosa) was “inactive” and the MIC50 (Escherichia coli) was 96.9 µM (≈ 37.5 µg/mL). The MIC80 (Escherichia coli) was 129 µM (≈ 50 µg/mL), the MIC90 (Escherichia coli) was 194 µM (≈ 75.1 µg/mL) and the survival at 48 h [5] was 100%. It also gave a survival at 72 h [6] of 100%, a survival at 72 h [7] of 100% and a survival at 48 h [8] of 100%. It also gave a survival at 48 h [9] of 100%, a survival at 24 h [10] of 100% and a survival at 72 h [11] of 100%. It also gave a survival at 48 h [12] of 100%, a survival at 72 h [13] of 100% and a survival at 24 h [14] of 100%. For the same compound, the Activity (Galleria mellonella) was “Non-toxic”, the survival at 72 h [15] was 100% and the survival at 24 h [16] was 100%. For the same compound, the survival at 24 h [17] was 100%.

With CN(C)CCNC(=S)Nc1cc(C(F)(F)F)cc(C(F)(F)F)c1 the MIC (Staphylococcus aureus [2]) was “inactive”, the MIC (Pseudomonas aeruginosa) was “inactive” and the MIC (Escherichia coli) was “inactive”.

Source: ChEMBL document CHEMBL3745710, “Synthesis, antibacterial and anti-MRSA activity, in vivo toxicity and a structure-activity relationship study of a quinoline thiourea” (Bioorg Med Chem Lett, 2016)
